Data reported in paper PMC4692507, “Purification and Characterization of Suicin 65, a Novel Class I Type B Lantibiotic Produced by Streptococcus suis” (PLoS ONE, 2015).
Converted amounts (≈) assume the structure as drawn.

What was measured:
S. suis MNCM01 = assay: Resistance to antibiotics (MIC-based class); format: cell-based, Streptococcus suis; conditions: strain MNCM01; resistant if MIC ≥ 400 μg/ml
Excerpt: (§1) Table 1 Strains of S. suis used in this study, their characteristics and susceptibility to S. suis 65. | column: Resistance to antibiotics ^1 / Erythromycin; Resistance to antibiotics ^1 / Tetracycline

S. suis P1/7 = assay: Resistance to antibiotics (MIC-based class); format: cell-based, Streptococcus suis; conditions: strain P1/7; resistant if MIC ≥ 400 μg/ml
Excerpt: as §1

S. suis 1054471 = assay: Resistance to antibiotics (MIC-based class); format: cell-based, Streptococcus suis; conditions: strain 1054471; resistant if MIC ≥ 400 μg/ml
Excerpt: as §1

S. suis 1088563 = assay: Resistance to antibiotics (MIC-based class); format: cell-based, Streptococcus suis; conditions: strain 1088563; resistant if MIC ≥ 400 μg/ml
Excerpt: as §1

S. suis LPH4 = assay: Resistance to antibiotics (MIC-based class); format: cell-based, Streptococcus suis; conditions: strain LPH4; resistant if MIC ≥ 400 μg/ml
Excerpt: as §1

S. suis MNCM06 = assay: Resistance to antibiotics (MIC-based class); format: cell-based, Streptococcus suis; conditions: strain MNCM06; resistant if MIC ≥ 400 μg/ml
Excerpt: as §1

S. suis 31533 = assay: Resistance to antibiotics (MIC-based class); format: cell-based, Streptococcus suis; conditions: strain 31533; resistant if MIC ≥ 400 μg/ml
Excerpt: as §1

S. suis 65 = assay: Antibiotic susceptibility of S. suis 65 (broth microdilution MIC); format: cell-based; conditions: Streptococcus suis; S. suis 65, THB, 96-well plates, 24 h at 37°C, growth recorded visually; three independent experiments
Description: The susceptibility of S. suis 65 to antibiotics (amoxicillin, ceftiofur, and penicillin G) was determined as follows. Briefly, a 24-h bacterial culture in THB was diluted in fresh broth medium to obtain an optical density at 660 nm (OD660) of 0.2. Equal volumes (100 μl) of bacteria and serial dilutions of antibiotics in THB were mixed in the wells of 96-well plates. Wells with no bacteria or no antibiotics were used as controls. Following a 24-h incubation at 37°C, bacterial growth was recorded visually. Minimal inhibitory concentration (MIC) values (μg/ml) were expressed as the lowest concentration at which no growth occurred. The MIC values were determined in three independent experiments.

| Structure (SMILES) | Resistance to antibiotics (S. suis MNCM01) | Resistance to antibiotics (S. suis P1/7) | Resistance to antibiotics (S. suis 1054471) | Resistance to antibiotics (S. suis 1088563) | Resistance to antibiotics (S. suis LPH4) | Resistance to antibiotics (S. suis MNCM06) | Resistance to antibiotics (S. suis 31533) | MIC (S. suis 65) [ng/mL] |
| --- | --- | --- | --- | --- | --- | --- | --- | --- |
| CC[C@H]1OC(=O)[C@H](C)[C@@H](O[C@H]2C[C@@](C)(OC)[C@@H](O)[C@H](C)O2)[C@H](C)[C@@H](O[C@@H]2O[C@H](C)C[C@H](N(C)C)[C@H]2O)[C@](C)(O)C[C@@H](C)C(=O)[C@H](C)[C@@H](O)[C@]1(C)O [Erythromycin] | Resistant (A strain was considered resistant if the MIC was ≥ 400 μg/ml) | Sensitive (A strain was considered resistant if the MIC was ≥ 400 μg/ml) | Sensitive (A strain was considered resistant if the MIC was ≥ 400 μg/ml) | Resistant (A strain was considered resistant if the MIC was ≥ 400 μg/ml) | Resistant (A strain was considered resistant if the MIC was ≥ 400 μg/ml) | Resistant (A strain was considered resistant if the MIC was ≥ 400 μg/ml) | Sensitive (A strain was considered resistant if the MIC was ≥ 400 μg/ml) |  |
| CC1(C)S[C@@H]2[C@H](NC(=O)[C@H](N)c3ccc(O)cc3)C(=O)N2[C@H]1C(=O)O [amoxicillin] |  |  |  |  |  |  |  | 4.9 (≈ 0.0134 µM) |
| CC1(C)S[C@@H]2[C@H](NC(=O)Cc3ccccc3)C(=O)N2[C@H]1C(=O)O [penicillin G] |  |  |  |  |  |  |  | 9.8 (≈ 0.0293 µM) |
| CN(C)[C@@H]1C(O)=C(C(N)=O)C(=O)[C@@]2(O)C(O)=C3C(=O)c4c(O)cccc4[C@@](C)(O)[C@H]3C[C@@H]12 [Tetracycline] | Resistant (A strain was considered resistant if the MIC was ≥ 400 μg/ml) | Sensitive (A strain was considered resistant if the MIC was ≥ 400 μg/ml) | Resistant (A strain was considered resistant if the MIC was ≥ 400 μg/ml) | Resistant (A strain was considered resistant if the MIC was ≥ 400 μg/ml) | Resistant (A strain was considered resistant if the MIC was ≥ 400 μg/ml) | Resistant (A strain was considered resistant if the MIC was ≥ 400 μg/ml) | Sensitive (A strain was considered resistant if the MIC was ≥ 400 μg/ml) |  |
| CO/N=C(\C(=O)N[C@@H]1C(=O)N2C(C(=O)O)=C(CSC(=O)c3ccco3)CS[C@H]12)c1csc(N)n1 [ceftiofur] |  |  |  |  |  |  |  | 9.8 (≈ 0.0187 µM) |
